The record followed here is US8574563B2 (Bristol-Myers Squibb Company, priority 2006, dated 2013).

Each structure is given as a SMILES string. Where only a bound is given, the exact number is not on record here.

As a reminder, the EC50 is the midpoint of the concentration-response curve.

The first test relates to HCV 1b-377-neo replicon cells. Put plainly: HCV replicon assay, HCV 1b-377-neo replicon cells (1b FRET). Conditions: HCV 1b-377-neo replicon cells; HCV 1b genotype. Type of test: cell-based, Hepatitis C virus genotype 1b. The procedure, abridged: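 Compounds tested in HCV genotype 1b-377-neo replicon cells with a FRET read-out. Cells resistant to a reference NS5A inhibitor through a Y2065H NS5A mutation were run alongside wild-type cells.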
In general terms: A replicon is a self-replicating genome or part of one, used to study replication in cells.
`COC(=O)N[C@@H](C(=O)N1CCC[C@@H]1c1ncc(-c2ccc(-c3ccc(-c4cnc([C@H]5CCCN5C(=O)[C@H](NC(=O)OC)C5CC5)[nH]4)cc3)cc2)[nH]1)C1CC1` [Example M29]: the “EC50 range against HCV 1b (Table 2, Range)” value is listed as “>A”.

Still in this test, the particulars now being: HCV 1b-377-neo replicon cells; HCV 1b genotype; read-out: EC50 range against HCV 1b (Table 2, Range).
Turning to `CCC[C@H](NC(=O)OC)C(=O)N1CCC[C@H]1c1ncc(-c2ccc(-c3ccc(-c4cnc([C@@H]5CCCN5C(=O)[C@H](CCC)NC(=O)OC)[nH]4)cc3)cc2)[nH]1` [Example M27, methyl ((1S)-1-(((2S)-2-(5-(4′-(2-((2S)-1-((2S)-2-((methoxycarbonyl)amino)pentanoyl)-2-pyrroldinyl)-1H-imidazol-5-yl)-4-biphenylyl)-1H-imidazol-2-yl)-1-pyrrolidinyl)carbonyl)butyl)carbamate], the half-maximal effective concentration (EC50) fell in the range of 1 to 99 nM.

Staying with this test, now noted: Hepatitis C virus, HCV 1b-377-neo replicon cells; HCV 1b genotype; read-out: EC50 range against HCV 1b (Table 2, Range).
On to `COC(=O)N[C@@H](C(=O)N1CCC[C@H]1c1ncc(-c2ccc(-c3ccc(-c4cnc([C@@H]5CCCN5C(=O)Cc5ccsc5)[nH]4)cc3)cc2)[nH]1)c1ccccc1` [Example 84-73, methyl ((1R)-2-oxo-1-phenyl-2-((2S)-2-(5-(4′-(2-((2S)-1-(3-thienylacetyl)-2-pyrrolidinyl)-1H-imidazol-5-yl)-4-biphenylyl)-1H-imidazol-2-yl)-1-pyrrolidinyl)ethyl)carbamate], for which the EC50 is 1 to 99 nM.

As for `COC(=O)N[C@H](C(=O)N1[C@H](c2ncc(-c3ccc(-c4ccc(-c5cnc([C@@H]6C[C@@H]7C[C@@H]7N6C(=O)[C@@H](NC(=O)OC)C6CC6)[nH]5)cc4)cc3)[nH]2)C[C@@H]2C[C@@H]21)C1CC1` [Example M127, dimethyl (4,4′-biphenyldiylbis(1H-imidazole-5,2-diyl(1S,3S,5S)-2-azabicyclo[3.1.0]hexane-3,2-diyl((1S)-1-cyclopropyl-2-oxo-2,1-ethanediyl)))biscarbamate], the 50% effective concentration (EC50) lay within 1 to 99 nM.

Take `COC(=O)N[C@H]1CC[C@@H](C(=O)N2CCC[C@H]2c2ncc(-c3ccc(-c4ccc(-c5cnc([C@@H]6CCCN6C(=O)[C@H](NC(=O)OC)c6ccccc6)[nH]5)cc4)cc3)[nH]2)C1` [cj-63, methyl ((1R)-2-((2S)-2-(5-(4′-(2-((2S)-1-(((1R,3S)-3-((methoxycarbonyl)amino)cyclopentyl)carbonyl)-2-pyrrolidinyl)-1H-imidazol-5-yl)-4-biphenylyl)-1H-imidazol-2-yl)-1-pyrrolidinyl)-2-oxo-1-phenylethyl)carbamate]: the EC50 was in the range of 0.001 to 0.999 nM.

In the case of `COC(=O)N[C@@H](CC(=O)OCc1ccccc1)C(=O)N1CCC[C@H]1c1ncc(-c2ccc(-c3ccc(-c4cnc([C@@H]5CCCN5C(=O)[C@@H](NC(=O)OC)C(C)C)[nH]4)cc3)cc2)[nH]1` [Example M109, benzyl (3S)-3-((methoxycarbonyl)amino)-4-((2S)-2-(5-(4′-(2-((2S)-1-(N-(methoxycarbonyl)-L-valyl)-2-pyrrolidinyl)-1H-imidazol-5-yl)-4-biphenylyl)-1H-imidazol-2-yl)-1-pyrrolidinyl)-4-oxobutanoate], the concentration giving a half-maximal response (EC50) lay in the range of 1 to 99 nM.

Regarding `Cc1cc(CC(=O)N2CCC[C@H]2c2ncc(-c3ccc(-c4ccc(-c5cnc([C@@H]6CCCN6C(=O)[C@@H](c6ccccc6)N6CCCCC6)[nH]5)cc4)cc3)[nH]2)n[nH]1` [Example 107-16, 1-((1R)-2-((2S)-2-(5-(4′-(2-((2S)-1-((5-methyl-1H-pyrazo1-3-yl)acetyl)-2-pyrrolidinyl)-1H-imidazol-5-yl)-4-biphenylyl)-1H-imidazol-2-yl)-1-pyrrolidinyl)-2-oxo-1-phenylethyl) piperidine], the half-maximal effective concentration (EC50) is 0.001 to 0.999 nM.

Take `COCC[C@H](NC(=O)OC)C(=O)N1CCC[C@H]1c1ncc(-c2ccc(-c3ccc(-c4cnc([C@@H]5CCCN5C(=O)[C@@H](NC(=O)OC)[C@@H](C)OC)[nH]4)cc3)cc2)[nH]1` [cj-121, methyl ((1S,2R)-2-methoxy-1-(((2S)-2-(5-(4′-(2-((2S)-1-(N-(methoxycarbonyl)-O-methyl-L-homoseryl)-2-pyrrolidinyl)-1H-imidazol-5-yl)-4-biphenylyl)-1H-imidazol-2-yl)-1-pyrrolidinyl)carbonyl)propyl)carbamate]: the EC50 was 0.001 to 0.999 nM.

Regarding `COC(=O)N[C@@H](C(=O)N1CCC[C@H]1c1ncc(-c2ccc(-c3ccc(-c4cnc([C@@H]5CCCN5C(=O)[C@@H](c5ccccc5)N5CCCCC5)[nH]4)cc3)cc2)[nH]1)c1ccccc1Cl` [Example 28-3, methyl ((1R)-1-(2-chlorophenyl)-2-oxo-2-((2S)-2-(5-(4′-(2-((2S)-1-((2R)-2-phenyl-2-(1-piperidinyl)acetyl)-2-pyrrolidinyl)-1H-imidazol-5-yl)-4-biphenylyl)-1H-imidazol-2-yl)-1-pyrrolidinyl)ethyl)carbamate], the EC50 is 0.001 to 0.999 nM.

Consider `C[C@H](NC(=O)[C@@H](c1ccccc1)N(C)C)c1ncc(-c2cnc(-c3ccc(-c4cnc([C@@H]5CCCN5C(=O)[C@@H](c5ccccc5)N(C)C)[nH]4)cc3)nc2)[nH]1` [Example 152j-16, (2R)-2-(dimethylamino)-N-((1S)-1-(5-(2-(4-(2-((2S)-1-((2R)-2-(dimethylamino)-2-phenylacetyl)-2-pyrrolidinyl)-1H-imidazol-5-yl)phenyl)-5-pyrimidinyl)-1H-imidazol-2-yl)ethyl)-2-phenylacetamide], for which the EC50 lay within 0.001 to 0.999 nM.

Take `COC(=O)N[C@@H](C(=O)N1CCC[C@H]1c1ncc(-c2ccc(-c3ccc(-c4cnc([C@@H]5CCCN5C(=O)C5CCOCC5)[nH]4)cc3)cc2)[nH]1)c1ccccc1` [Example 45, methyl ((1R)-2-oxo-1-phenyl-2-((2S)-2-(5-(4′-(2-((2S)-1-(tetrahydro-2H-pyran-4-ylcarbonyl)-2-pyrrolidinyl)-1H-imidazol-5-yl)-4-biphenylyl)-1H-imidazol-2-yl)-1-pyrrolidinyl)ethyl)carbamate]: the EC50 was 0.001 to 0.999 nM.

For the molecule `COC(=O)N[C@@H](C(=O)N1CCC[C@H]1c1ncc(-c2ccc(-c3ccc(-c4cnc([C@@H]5CCCN5C(=O)CCN5CCCCC5)[nH]4)cc3)cc2)[nH]1)c1ccccc1` [Example 84-24, methyl ((1R)-2-oxo-1-phenyl-2-((2S)-2-(5-(4′-(2-((2S)-1-(3-(1-piperidinyl)propanoyl)-2-pyrrolidinyl)-1H-imidazol-5-yl)-4-biphenylyl)-1H-imidazol-2-yl)-1-pyrrolidinyl)ethyl)carbamate], the EC50 was in the range of 0.001 to 0.999 nM.

Turning to `COC(=O)N[C@@H](C(=O)N1CCC[C@H]1c1ncc(-c2ccc(-c3ccc(-c4cnc([C@@H]5CCCN5C(=O)[C@H](NC(=O)OC)c5ccccc5)[nH]4)nn3)cc2)[nH]1)c1ccccc1` [Example 152j-10], the EC50 is 1 to 99 nM.

In the case of `CCN(CC)[C@@H](C(=O)N1CCC[C@H]1c1ncc(-c2ccc(-c3ccc(-c4cnc([C@@H]5CCCN5C(=O)[C@@H](C(C)C)N(CC)CC)[nH]4)cc3)cc2)[nH]1)c1ccccc1` [Example M45, (2R)-1-((2S)-2-(5-(4′-(2-((2S)-1-((2R)-2-(diethylamino)-2-phenylacetyl)-2-pyrrolidinyl)-1H-imidazol-5-yl)-4-biphenylyl)-1H-imidazol-2-yl)-1-pyrrolidinyl)-N,N-diethyl-3-methyl-1-oxo-2-butanamine], the concentration for a half-maximal effect (EC50) lay in the range of 1 to 99 nM.

As to `O=C([C@@H]1CCCO1)N1CCC[C@H]1c1ncc(-c2ccc(-c3ccc(-c4cnc([C@@H]5CCCN5C(=O)[C@@H](c5ccccc5)N5CCCC5)[nH]4)cc3)cc2)[nH]1` [Example 95, 2-((2S)-1-((2R)-2-phenyl-2-(1-pyrrolidinyl)acetyl)-2-pyrrolidinyl)-5-(4′-(2-((2S)-1-((2S)-tetrahydro-2-furanylcarbonyl)-2-pyrrolidinyl)-1H-imidazol-5-yl)-4-biphenylyl)-1H-imidazole], the 50% effective concentration (EC50) fell in the range of 0.001 to 0.999 nM.

Regarding `COC(=O)N[C@@H](C(=O)N1CCC[C@H]1c1ncc(-c2ccc(-c3ccc(-c4cnc([C@@H]5CCCN5C(=O)Cc5cccnc5)[nH]4)cc3)cc2)[nH]1)c1ccccc1` [Example 47, methyl ((1R)-2-oxo-1-phenyl-2-((2S)-2-(5-(4′-(2-((2S)-1-(3-pyridinylacetyl)-2-pyrrolidinyl)-1H-imidazol-5-yl)-4-biphenylyl)-1H-imidazol-2-yl)-1-pyrrolidinyl)ethyl)carbamate], the EC50 was in the range of 0.001 to 0.999 nM.

As to `COC(=O)N[C@@H](CC(=O)N1CCC[C@H]1c1ncc(-c2ccc(-c3ccc(-c4cnc([C@@H]5CCCN5C(=O)C[C@@H](Cc5cccs5)NC(=O)OC)[nH]4)cc3)cc2)[nH]1)Cc1cccs1` [cj-138, dimethyl (4,4′-biphenyldiylbis(1H-imidazole-5,2-diyl(2S)-2,1-pyrrolidinediyl((2S)-4-oxo-1-(2-thienyl)-4,2-butanediyl)))biscarbamate], the EC50 was 1000 to 10000 nM.

As to `CCN(CC)[C@@H](C(=O)N1CCC[C@H]1c1ncc(-c2ccc(-c3ccc(-c4cnc([C@@H]5CCCN5C(=O)[C@H](Cc5ccc(O)cc5)NC(=O)OC)[nH]4)cc3)cc2)[nH]1)c1ccccc1` [cj-112, methyl ((1S)-2-((2S)-2-(5-(4′-(2-((2S)-1-((2R)-2-(diethylamino)-2-phenylacetyl)-2-pyrrolidinyl)-1H-imidazol-5-yl)-4-biphenylyl)-1H-imidazol-2-yl)-1-pyrrolidinyl)-1-(4-hydroxybenzyl)-2-oxoethyl)carbamate], the concentration for a half-maximal effect (EC50) was 0.001 to 0.999 nM.

As to `COC(=O)N[C@@H](C(=O)N1CCC[C@H]1c1ncc(-c2ccc(-c3ccc(-c4cnc([C@@H]5CCCN5C(=O)C(c5cccc(F)c5)N(C)C)[nH]4)cc3)cc2)[nH]1)c1ccccc1` (stereo partly drawn) [Example 84-60, methyl ((1R)-2-((2S)-2-(5-(4′-(2-((2S)-1-((dimethylamino)(3-fluorophenyl)acetyl)-2-pyrrolidinyl)-1H-imidazol-5-yl)-4-biphenylyl)-1H-imidazol-2-yl)-1-pyrrolidinyl)-2-oxo-1-phenylethyl)carbamate], the EC50 was 0.001 to 0.999 nM.

In the case of `COC(=O)N[C@@H](C(=O)N(C)[C@@H](C)c1ncc(-c2ccc(-c3ccc(-c4cnc([C@H](C)N(C)C(=O)[C@H](NC(=O)OC)c5ccccc5)[nH]4)cc3)cc2)[nH]1)c1ccccc1` [Example 24-18-1, dimethyl (4,4′-biphenyldiylbis(1H-imidazole-5,2-diyl(1S)-1,1-ethanediyl(methylimino)((1R)-2-oxo-1-phenyl-2,1-ethanediyl)))biscarbamate], the EC50 lay within 0.001 to 0.999 nM.
